Experimental data reported in ChEMBL document CHEMBL4270626, “Synthesis and antitumor activity of epothilone B” (Eur J Med Chem, 2018).

What was measured:
HCT-116 = experiment: Antiproliferative activity against human HCT116 cells assessed as inhibition of cell proliferation; assay type: functional, cell-based
Tubulin = experiment: […] in human MCF7 cells assessed as induction of mitotic arrest; assay type: cell-based
RPMI-8226 = experiment: Antiproliferative activity against human […] cells assessed as inhibition of cell proliferation; assay type: functional, cell-based
KB 3-1 = experiment: Cytotoxicity against human KB3-1 cells; assay type: functional, cell-based
Hs-578T = experiment: Cytotoxicity against human Hs 578T cells; assay type: functional, cell-based
HeLa = experiment: Cytotoxicity against human HeLa cells; assay type: functional, cell-based
KB-V1 = experiment: Cytotoxicity against human KBV1 cells; assay type: functional, cell-based
MM1.S = experiment: Antiproliferative activity against human MM1S cells assessed as inhibition of cell proliferation; assay type: functional, cell-based
U-266 = experiment: Antiproliferative activity against human U266 cells assessed as inhibition of cell proliferation; assay type: functional, cell-based
[1] = Antiproliferative activity against human 8226/LR-5 cells assessed as inhibition of cell proliferation; assay type: functional, cell-based
[2] = Inhibition of GFP-tagged alpha-tubulin (unknown origin) expressed in human MCF7 cells assessed as disruption of microtubule polymerization; assay type: cell-based
[3] = Antiproliferative activity against human RPMI8226/MR20 cells assessed as inhibition of cell proliferation; assay type: functional, cell-based; details: RPMI-8226
[4] = Inhibition of paclitaxel binding to microtubule (unknown origin); parameters: species or system Homo sapiens

Work on `C/C(=C\c1csc(C)n1)[C@@H]1C[C@@H]2O[C@]2(C)CCC[C@H](C)[C@H](O)[C@@H](C)C(=O)C(C)(C)[C@@H](O)CC(=O)O1` [PATUPILONE] yielded an IC50 (HCT-116) of 0.8 nM, an IC50 (Tubulin) of 3.5 nM and an IC50 (RPMI-8226) of 1 to 10 nM. The IC50 (KB 3-1) was 3 to 92 nM, the IC50 (Hs-578T) was 3 to 92 nM and the IC50 (HeLa) was 3 to 92 nM. For the same compound, the IC50 (KB-V1) was 3 to 92 nM, the IC50 (MM1.S) was 1 to 10 nM and the IC50 (U-266) was 1 to 10 nM. It also gave an IC50 [1] of 1 to 10 nM, an IC50 [2] of 3.5 nM and an IC50 [3] of 1 to 10 nM. It also gave an IC50 [4] of 3.3 nM.
